Source: patent US7288532B1, “Modified chitosan polymers and enzymatic methods for the production thereof” (The University of Maryland Biotechnology Institute, priority 1998, dated 2007)

Tested on: tyrosinase
Assay: tyrosinase activity under mildly acidic conditions by consumption of dissolved oxygen
Format: biochemical, mushroom
Conditions: chlorogenic acid 6 mM, 0.16% chitosan, pH about 5.8 to 6.0, tyrosinase 60 U/mL
Description: The reactivity of tyrosinase under mildly acidic conditions was studied to verify that the enzyme remains active in acidic solution. The progress of the reaction was measured by monitoring the consumption of dissolved oxygen, using the method described in Mayer et al., “Assay of catechol oxidase: A critical comparison of methods,” Phytochem., 5:783-789 (1966). The dissolved oxygen probe used in these measurements was obtained from Microelectrodes, Londonderry, N.H. Chlorogenic acid (6 mM) was added to a 0.16% chitosan solution, and the pH was adjusted to about 5.8 to 6.0. Tyrosinase (60 U/mL) was added, the reaction vessel sealed, and the dissolved oxygen content measured as a function of time. Two control solutions were prepared and monitored in the same manner, one containing only tyrosinase and chitosan (no phenolic compound), and one containing only chlorogenic acid and chitosan (no enzyme). The results of these measurements are shown in FIG. 1, with the two control solutions labeled “tyrosinase only” and “chlorogenic acid only,” respectively. […] In the solution containing both tyrosinase and chlorogenic acid, however, the oxygen level dropped rapidly in the first few minutes, reaching essentially zero after about 10 to 12 minutes.

time for dissolved oxygen level to reach essentially zero: 10 to 12 min
Structure (SMILES): O=C(/C=C/c1ccc(O)c(O)c1)O[C@@H]1C[C@](O)(C(=O)O)C[C@@H](O)[C@H]1O [chlorogenic acid]
